Values quoted from earlier work in publication PMC7434893 (British Journal of Cancer, 2020).

Molecular target: tankyrase 1/2
Details: relative to E7449; cited from earlier work

Structure (SMILES)	IC50 values for tankyrase inhibition, fold higher than E7449
NC(=O)c1cccc2cn(-c3ccc([C@@H]4CCCNC4)cc3)nc12 [niraparib]	5–20 fold
O=C(c1cc(Cc2n[nH]c(=O)c3ccccc23)ccc1F)N1CCN(C(=O)C2CC2)CC1 [olaparib]	5–20 fold
C[C@]1(c2nc3c(C(N)=O)cccc3[nH]2)CCCN1 [veliparib]	5–20 fold
